Earlier results on two compounds are cited in patent US11771784B2, “Material, device, and method for deactivating pathogen in aerosol, and methods for manufacturing thereof” (priority 2016, dated 2023).

For this data set the following is noted: in water.

Take `[Cl-].[K+]` [potassium chloride]: the maximum solubility limit result was “about 355 g/l”.
For the compound (sodium/potassium) tartrates, the maximum solubility limit entry is “about 660 g/l”.
